According to US20250154525A1, “PLANT VIRUS MOVEMENT PROTEINS AND METHODS OF USING SAME” (Molecular Transfer, Inc., priority 2016, published 2025):

What follows are substances tested on HeLa Cells (assay: GFP plasmid transfection with DOTMA/DOPE plus surface ligand peptide, fluorescent plate reader (Example 1)). Conditions: DOTMA/DOPE + peptide linked to R12 or K16; EF1Alpha eGFP plasmid; 42 hours.
Format: cell-based

Point of comparison: 328 (NWRHISYITRFG) [compound 328], “Relative Fluorescence of Transfection of HeLa Cells (RF)” value 32528. Against it:
- 237 (KNSFMALYLSKG) [compound 237] — lower, 21288
- 381 (TAGSCL) [compound 381] — lower, 22652
- 218 (SPPRRARVT) [compound 218] — lower, 11179
- 351 (LNRQELFPFG) [compound 351] — lower, 12279
- 268 (GGFLKYTVSYDI) [compound 268] — lower, 25885

The substances below were run on HuVec Cells in the same assay as above. Conditions: DOTMA/DOPE + peptide linked to R12 or K16; EF1Alpha eGFP plasmid; 42 hours.
Format: cell-based
How it was run: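 HuVEC cells in 96 well plates at 70% confluence were transfected with EF1Alpha eGFP plasmid using a 1:1 molar DOTMA/DOPE lipid mixed with a surface ligand peptide carrying a covalently attached nucleic acid binding moiety. Complexes formed for 10 minutes, 0.01 mL went to each well, cells were incubated 42 hours at 37° C., and fluorescence was read on a plate reader.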

Point of comparison: 381 (TAGSCL) [compound 381], “Relative Fluorescence of Transfection of HuVec Cells (RF)” value 17542. Against it:
- 328 (NWRHISYITRFG) [compound 328] — lower, 3614
- 237 (KNSFMALYLSKG) [compound 237] — lower, 2302
- 218 (SPPRRARVT) [compound 218] — lower, 14827
- 351 (LNRQELFPFG) [compound 351] — lower, 15379
- 268 (GGFLKYTVSYDI) [compound 268] — lower, 5403

Each substance was assayed on Human Fibroblast Cells in the same assay as above. Conditions: DOTMA/DOPE + peptide linked to R12 or K16; EF1Alpha eGFP plasmid; 42 hours.
Format: cell-based
How it was run: (§1)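 DOTMA/DOPE (1:1 molar) plus peptide bearing a poly-Arg or poly-Lys tag was complexed 10 min with EF1alpha eGFP plasmid in OptiMEM, then added to 70%-confluent cells (0.01 mL fibroblasts; 0.02 mL C2C12, Jurkat). After 42 h at 37 °C, GFP was read by plate reader and compared with DOTMA without ligand.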

Point of comparison: 268 (GGFLKYTVSYDI) [compound 268], “Relative Fluorescence of Transfection of Human Fibroblast Cells (RF)” value 4568. Against it:
- 328 (NWRHISYITRFG) [compound 328] — higher, 5641
- 237 (KNSFMALYLSKG) [compound 237] — lower, 2184
- 381 (TAGSCL) [compound 381] — higher, 9953
- 218 (SPPRRARVT) [compound 218] — higher, 11230
- 351 (LNRQELFPFG) [compound 351] — higher, 8061

The substances below were run on Jurkat Cells in the same assay as above. Conditions: DOTMA/DOPE + peptide linked to R12 or K16; EF1Alpha eGFP plasmid; 42 hours.
Format: cell-based
How it was run: as §1

Point of comparison: 268 (GGFLKYTVSYDI) [compound 268], “Relative Fluorescence of Transfection of Jurkat Cells (RF)” value 3236. Against it:
- 328 (NWRHISYITRFG) [compound 328] — higher, 4770
- 237 (KNSFMALYLSKG) [compound 237] — lower, 1501
- 381 (TAGSCL) [compound 381] — higher, 10806
- 218 (SPPRRARVT) [compound 218] — higher, 21451
- 351 (LNRQELFPFG) [compound 351] — higher, 9730

What follows are substances tested on NL-1 iPS Cells in the same assay as above. Conditions: DOTMA/DOPE + peptide linked to R12 or K16; EF1Alpha eGFP plasmid; 42 hours.
Format: cell-based

Point of comparison: 268 (GGFLKYTVSYDI) [compound 268], “Relative Fluorescence of Transfection of NL-1 iPS Cells (RF)” value 15697. Against it:
- 328 (NWRHISYITRFG) [compound 328] — lower, 8611
- 237 (KNSFMALYLSKG) [compound 237] — lower, 8632
- 381 (TAGSCL) [compound 381] — lower, 9644
- 218 (SPPRRARVT) [compound 218] — higher, 17049
- 351 (LNRQELFPFG) [compound 351] — higher, 24646

Each substance was assayed on C2C12 Cells in the same assay as above. Conditions: DOTMA/DOPE + peptide linked to R12 or K16; EF1Alpha eGFP plasmid; 42 hours.
Format: cell-based, mouse
How it was run: as §1

Point of comparison: 268 (GGFLKYTVSYDI) [compound 268], “Relative Fluorescence of Transfection of C2C12 Cells (RF)” value 2568. Against it:
- 328 (NWRHISYITRFG) [compound 328] — higher, 5507
- 237 (KNSFMALYLSKG) [compound 237] — higher, 6491
- 381 (TAGSCL) [compound 381] — higher, 8834
- 218 (SPPRRARVT) [compound 218] — higher, 3706
- 351 (LNRQELFPFG) [compound 351] — higher, 3530

The substances below were run on HeLa Cells (assay: GFP transfection with DOTMA/SEQ ID NO: 72 (fusogenic peptide)/peptide compared with Lipofectamine 2000). Conditions: 0.1 μL of DOTMA/SEQ ID NO: 72/Peptide in well of a 96 well plate.
Format: cell-based
How it was run: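 DOTMA/DOPE (1:1 molar) lipid mixed with polyarginine- or polylysine-tagged cell-surface-ligand peptide, complexed 10 min with EF1alpha eGFP plasmid at 10 μg/mL in OptiMEM, fusogenic peptide at 0.1 mg/mL final; HeLa cells ~70% confluent given 0.01 mL complex. GFP read by fluorescence plate reader and microscopy (% cells transfected) after 42 h at 37° C; Lipofectamine 2000 as comparator.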

Point of comparison: 218 (SPPRRARVT) [compound 218], “Relative Fluorescence DOTMA/SEQ ID NO: 72/Peptide, HeLa Cells (RF)” value (from here on “Relative Fluorescence DOTMA/SEQ ID NO”) 12686. Against it:
- 328 (NWRHISYITRFG) [compound 328] — lower, 11037
- 237 (KNSFMALYLSKG) [compound 237] — lower, 8986
- 381 (TAGSCL) [compound 381] — higher, 34187
- 351 (LNRQELFPFG) [compound 351] — lower, 7678
- 268 (GGFLKYTVSYDI) [compound 268] — lower, 10162

Same assay, conditions: 0.2 μL of DOTMA/SEQ ID NO: 72/Peptide in well of a 96 well plate

Point of comparison: 351 (LNRQELFPFG) [compound 351], “Relative Fluorescence DOTMA/SEQ ID NO” value 11499. Against it:
- 328 (NWRHISYITRFG) [compound 328] — higher, 12229
- 237 (KNSFMALYLSKG) [compound 237] — lower, 9753
- 381 (TAGSCL) [compound 381] — higher, 37463
- 218 (SPPRRARVT) [compound 218] — higher, 13103
- 268 (GGFLKYTVSYDI) [compound 268] — lower, 9934

Same assay, conditions: 0.3 μL of DOTMA/SEQ ID NO: 72/Peptide in well of a 96 well plate

Point of comparison: 351 (LNRQELFPFG) [compound 351], “Relative Fluorescence DOTMA/SEQ ID NO” value 10575. Against it:
- 328 (NWRHISYITRFG) [compound 328] — higher, 10801
- 237 (KNSFMALYLSKG) [compound 237] — lower, 8015
- 381 (TAGSCL) [compound 381] — higher, 27007
- 218 (SPPRRARVT) [compound 218] — lower, 10151
- 268 (GGFLKYTVSYDI) [compound 268] — higher, 10792

Same assay, conditions: 0.4 μL of DOTMA/SEQ ID NO: 72/Peptide in well of a 96 well plate

Point of comparison: 237 (KNSFMALYLSKG) [compound 237], “Relative Fluorescence DOTMA/SEQ ID NO” value 8288. Against it:
- 328 (NWRHISYITRFG) [compound 328] — higher, 10951
- 381 (TAGSCL) [compound 381] — higher, 20088
- 218 (SPPRRARVT) [compound 218] — higher, 10081
- 351 (LNRQELFPFG) [compound 351] — higher, 8791
- 268 (GGFLKYTVSYDI) [compound 268] — higher, 9519

What follows are substances tested on some examined cell types (assay: Summary of Example 1: transfection expression and % cells transfected over the no peptide control). Conditions: on some examined cell types.
Format: cell-based
How it was run: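 Cells at 70% confluence received DNA complexes of EF1Alpha eGFP plasmid with DOTMA/DOPE (1:1) plus oligo-Arg- or oligo-Lys-tagged peptide ligands, formed 10 min at room temperature. After 42 h at 37 °C, 5% CO2, GFP read by plate reader and % transfected cells judged microscopically, relative to lipid without peptide.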

328 (NWRHISYITRFG) [compound 328] was tested, and the “transfection expression and % cells transfected over the no peptide control” value was “increased transfection expression and the % cells transfected”.
237 (KNSFMALYLSKG) [compound 237] was tested, and the “transfection expression and % cells transfected over the no peptide control” value was “increased transfection expression and the % cells transfected”.
With 381 (TAGSCL) [compound 381] the “transfection expression and % cells transfected over the no peptide control” value was “increased transfection expression and the % cells transfected”.
In the case of 218 (SPPRRARVT) [compound 218], the “transfection expression and % cells transfected over the no peptide control” value is reported as “increased transfection expression and the % cells transfected”.
With 351 (LNRQELFPFG) [compound 351] the “transfection expression and % cells transfected over the no peptide control” value was “increased transfection expression and the % cells transfected”.
With 268 (GGFLKYTVSYDI) [compound 268] the “transfection expression and % cells transfected over the no peptide control” value was “increased transfection expression and the % cells transfected”.
